{
  "source": "PubChem BioAssay AID2060898",
  "about": "(Molecular Pharmacology Branch, DTP, NCI, 2025)",
  "system": "616215-338-R-J1-PDC complex spheroid viability",
  "assay": "Anticancer human tumor 616215-338-R-J1-PDC patient-derived colon adenocarcinoma cell line growth inhibition [RAS]",
  "details": "for pIC50: curve of first compound; for viability, T/C: stronger effect = lower value",
  "outline": "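Agents were tested in combination matrices in half-log decrements from a top concentration at or near clinical Cmax (10 microM if undetermined). Targets were multi-cell spheroids of tumour lines plus HUVEC and MSC stromal cells.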",
  "note": "pIC50: −log10 of the molar value.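 Also: spheroids exposed to agents for seven days before viability readout.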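 For viability, T/C in this document: 100% = DMSO vehicle control viability.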",
  "data": [
    {"smiles": "CC(=O)OC12COC1CC(O)C1(C)C(=O)C(O)C3=C(C)C(OC(=O)C(O)C(NC(=O)OC(C)(C)C)c4ccccc4)CC(O)(C(OC(=O)c4ccccc4)C21)C3(C)C", "note": "(configuration not stated) + CCn1c(-c2cccnc2C(C)OC)c2c3cc(ccc31)N1CCOC(CC(NC(=O)C(C(C)C)N(C)C(=O)C3(F)CCN(C(=O)C#CC(C)(C)N(C)C)CC3)C(=O)N3CCCC(N3)C(=O)OCC(C)(C)C2)C1", "values": [
      {"measurement": "pIC50", "setting": "second compound 0.000949 µM", "value": "> 7.50"},
      {"measurement": "pIC50", "setting": "second compound 0.003 µM", "value": "> 7.50"},
      {"measurement": "pIC50", "setting": "second compound 0.00949 µM", "value": "> 7.50"},
      {"measurement": "pIC50", "setting": "second compound 0.03 µM", "value": "> 7.50"},
      {"measurement": "pIC50", "setting": "second compound 0.0949 µM", "value": "> 7.50"},
      {"measurement": "pIC50", "setting": "second compound 0.3 µM", "value": "> 7.50"},
      {"measurement": "viability, T/C", "setting": "second compound 0.000949 µM, first compound 0.0316 µM", "value": 30.9, "unit": "%"},
      {"measurement": "viability, T/C", "setting": "second compound 0.000949 µM, first compound 0.1 µM", "value": 20.4, "unit": "%"},
      {"measurement": "viability, T/C", "setting": "second compound 0.000949 µM, first compound 0.316 µM", "value": 19.5, "unit": "%"},
      {"measurement": "viability, T/C", "setting": "second compound 0.000949 µM, first compound 1 µM", "value": 19.6, "unit": "%"},
      {"measurement": "viability, T/C", "setting": "second compound 0.000949 µM, first compound 3.16 µM", "value": 22.6, "unit": "%"},
      {"measurement": "viability, T/C", "setting": "second compound 0.000949 µM, first compound 10 µM", "value": 28.7, "unit": "%"},
      {"measurement": "viability, T/C", "setting": "second compound 0.003 µM, first compound 0.0316 µM", "value": 30.8, "unit": "%"},
      {"measurement": "viability, T/C", "setting": "second compound 0.003 µM, first compound 0.1 µM", "value": 23.1, "unit": "%"},
      {"measurement": "viability, T/C", "setting": "second compound 0.003 µM, first compound 0.316 µM", "value": 20.3, "unit": "%"},
      {"measurement": "viability, T/C", "setting": "second compound 0.003 µM, first compound 1 µM", "value": 22.1, "unit": "%"},
      {"measurement": "viability, T/C", "setting": "second compound 0.003 µM, first compound 3.16 µM", "value": 24.2, "unit": "%"},
      {"measurement": "viability, T/C", "setting": "second compound 0.003 µM, first compound 10 µM", "value": 27, "unit": "%"},
      {"measurement": "viability, T/C", "setting": "second compound 0.00949 µM, first compound 0.0316 µM", "value": 28, "unit": "%"},
      {"measurement": "viability, T/C", "setting": "second compound 0.00949 µM, first compound 0.1 µM", "value": 24.2, "unit": "%"},
      {"measurement": "viability, T/C", "setting": "second compound 0.00949 µM, first compound 0.316 µM", "value": 19.9, "unit": "%"},
      {"measurement": "viability, T/C", "setting": "second compound 0.00949 µM, first compound 1 µM", "value": 20.8, "unit": "%"},
      {"measurement": "viability, T/C", "setting": "second compound 0.00949 µM, first compound 3.16 µM", "value": 24.8, "unit": "%"},
      {"measurement": "viability, T/C", "setting": "second compound 0.00949 µM, first compound 10 µM", "value": 24.6, "unit": "%"},
      {"measurement": "viability, T/C", "setting": "second compound 0.03 µM, first compound 0.0316 µM", "value": 25.9, "unit": "%"},
      {"measurement": "viability, T/C", "setting": "second compound 0.03 µM, first compound 0.1 µM", "value": 21.9, "unit": "%"},
      {"measurement": "viability, T/C", "setting": "second compound 0.03 µM, first compound 0.316 µM", "value": 18.3, "unit": "%"},
      {"measurement": "viability, T/C", "setting": "second compound 0.03 µM, first compound 1 µM", "value": 19, "unit": "%"},
      {"measurement": "viability, T/C", "setting": "second compound 0.03 µM, first compound 3.16 µM", "value": 22.6, "unit": "%"},
      {"measurement": "viability, T/C", "setting": "second compound 0.03 µM, first compound 10 µM", "value": 22.4, "unit": "%"},
      {"measurement": "viability, T/C", "setting": "second compound 0.0949 µM, first compound 0.0316 µM", "value": 33, "unit": "%"},
      {"measurement": "viability, T/C", "setting": "second compound 0.0949 µM, first compound 0.1 µM", "value": 19.8, "unit": "%"},
      {"measurement": "viability, T/C", "setting": "second compound 0.0949 µM, first compound 0.316 µM", "value": 19.8, "unit": "%"},
      {"measurement": "viability, T/C", "setting": "second compound 0.0949 µM, first compound 1 µM", "value": 19, "unit": "%"},
      {"measurement": "viability, T/C", "setting": "second compound 0.0949 µM, first compound 3.16 µM", "value": 22.2, "unit": "%"},
      {"measurement": "viability, T/C", "setting": "second compound 0.0949 µM, first compound 10 µM", "value": 23.1, "unit": "%"},
      {"measurement": "viability, T/C", "setting": "second compound 0.3 µM, first compound 0.0316 µM", "value": 28.8, "unit": "%"},
      {"measurement": "viability, T/C", "setting": "second compound 0.3 µM, first compound 0.1 µM", "value": 17.9, "unit": "%"},
      {"measurement": "viability, T/C", "setting": "second compound 0.3 µM, first compound 0.316 µM", "value": 17, "unit": "%"},
      {"measurement": "viability, T/C", "setting": "second compound 0.3 µM, first compound 1 µM", "value": 17.6, "unit": "%"},
      {"measurement": "viability, T/C", "setting": "second compound 0.3 µM, first compound 3.16 µM", "value": 20.8, "unit": "%"},
      {"measurement": "viability, T/C", "setting": "second compound 0.3 µM, first compound 10 µM", "value": 25.5, "unit": "%"}
    ]}
  ]
}
